Source: ChEMBL document CHEMBL4507305, “Data for DCP probe TP-024” (2021)

Tests used:
[1] = biological target: Alpha-1B adrenergic receptor (Homo sapiens) (UniProt P35368); conditions: Compound concentration 10.0 uM
[2] = biological target: Serine/threonine-protein kinase 16 (Homo sapiens) (UniProt O75716); conditions: Compound concentration 1000.0 nM
[3] = biological target: Serine/threonine-protein kinase 26 (Homo sapiens) (UniProt Q9P289); conditions: Compound concentration 1000.0 nM
[4] = biological target: GABA-A receptor; anion channel (Rattus norvegicus) (UniProt O09028+P15431+P18506+P18508+P19969+P20236+P23574+P23576+P28471+P28473+P30191+P62813+P63079+P63138+Q91ZM7+Q9ES14); conditions: Compound concentration 10.0 uM
[5] = biological target: TGF-beta receptor type-1 (Homo sapiens) (UniProt P36897); conditions: Compound concentration 1000.0 nM
[6] = biological target: Ribosomal protein S6 kinase alpha-2 (Homo sapiens) (UniProt Q15349); conditions: Compound concentration 1000.0 nM
[7] = biological target: Protein-tyrosine kinase 6 (Homo sapiens) (UniProt Q13882); conditions: Compound concentration 1000.0 nM
[8] = biological target: Phosphatidylinositol 5-phosphate 4-kinase type-2 gamma (Homo sapiens) (UniProt Q8TBX8); conditions: Compound concentration 1000.0 nM
[9] = system: Tyrosine-protein kinase ABL1 (Homo sapiens), P00519 [H396P]; conditions: Compound concentration 1000.0 nM
[10] = biological target: Vascular endothelial growth factor receptor 1 (Homo sapiens) (UniProt P17948); conditions: Compound concentration 1000.0 nM
[11] = biological target: Serine/threonine-protein kinase 10 (Homo sapiens) (UniProt O94804); conditions: Compound concentration 1000.0 nM
[12] = biological target: Serine/threonine-protein kinase 17A (Homo sapiens) (UniProt Q9UEE5); conditions: Compound concentration 1000.0 nM
[13] = biological target: Ribosomal protein S6 kinase alpha-3 (Homo sapiens) (UniProt P51812); conditions: Compound concentration 1000.0 nM
[14] = biological target: Calcium/calmodulin-dependent protein kinase type II subunit alpha (Homo sapiens) (UniProt Q9UQM7); conditions: Compound concentration 1000.0 nM
[15] = biological target: Calcium/calmodulin-dependent protein kinase kinase 2 (Homo sapiens) (UniProt Q96RR4); conditions: Compound concentration 1000.0 nM
[16] = biological target: Atypical kinase COQ8B, mitochondrial (Homo sapiens) (UniProt Q96D53); conditions: Compound concentration 1000.0 nM
[17] = biological target: Serine/threonine-protein kinase PAK 4 (Homo sapiens) (UniProt O96013); conditions: Compound concentration 1000.0 nM
[18] = biological target: Macrophage colony-stimulating factor 1 receptor (Homo sapiens) (UniProt P07333); conditions: Compound concentration 1000.0 nM
[19] = biological target: Delta-type opioid receptor (Homo sapiens) (UniProt P41143); conditions: Compound concentration 10.0 uM
[20] = biological target: Ankyrin repeat and protein kinase domain-containing protein 1 (Homo sapiens) (UniProt Q8NFD2); conditions: Compound concentration 1000.0 nM
[21] = biological target: Cyclin-dependent kinase 4 (Homo sapiens) (UniProt P11802); conditions: Compound concentration 1000.0 nM
[22] = biological target: Serine/threonine-protein kinase Nek5 (Homo sapiens) (UniProt Q6P3R8); conditions: Compound concentration 1000.0 nM
[23] = biological target: Alpha-2B adrenergic receptor (Homo sapiens) (UniProt P18089); conditions: Compound concentration 10.0 uM
[24] = biological target: Dual specificity protein kinase CLK2 (Homo sapiens) (UniProt P49760); conditions: Compound concentration 1000.0 nM
[25] = biological target: Casein kinase I isoform epsilon (Homo sapiens) (UniProt P49674); conditions: Compound concentration 1000.0 nM
[26] = biological target: Cyclin-dependent kinase 11B (Homo sapiens) (UniProt P21127); conditions: Compound concentration 1000.0 nM
[27] = biological target: Serine/threonine-protein kinase SIK2 (Homo sapiens) (UniProt Q9H0K1); conditions: Compound concentration 1000.0 nM
[28] = biological target: RAC-gamma serine/threonine-protein kinase (Homo sapiens) (UniProt Q9Y243); conditions: Compound concentration 1000.0 nM
[29] = biological target: Serine/threonine-protein kinase N1 (Homo sapiens) (UniProt Q16512); conditions: Compound concentration 1000.0 nM
[30] = biological target: Mu-type opioid receptor (Homo sapiens) (UniProt P35372); conditions: Compound concentration 10.0 uM
[31] = biological target: Serine/threonine-protein kinase D2 (Homo sapiens) (UniProt Q9BZL6); conditions: Compound concentration 1000.0 nM
[32] = system: Phosphatidylinositol 4,5-bisphosphate 3-kinase catalytic subunit alpha isoform (Homo sapiens), P42336 [C420R]; conditions: Compound concentration 1000.0 nM
[33] = biological target: Kappa-type opioid receptor (Homo sapiens) (UniProt P41145); conditions: Compound concentration 10.0 uM
[34] = system: Phosphatidylinositol 4,5-bisphosphate 3-kinase catalytic subunit alpha isoform (Homo sapiens), P42336 [H1047Y]; conditions: Compound concentration 1000.0 nM
[35] = biological target: Serine/threonine-protein kinase Sgk1 (Homo sapiens) (UniProt O00141); conditions: Compound concentration 1000.0 nM
[36] = biological target: Tyrosine-protein kinase ZAP-70 (Homo sapiens) (UniProt P43403); conditions: Compound concentration 1000.0 nM
[37] = biological target: 5-hydroxytryptamine receptor 2B (Homo sapiens) (UniProt P41595); conditions: Compound concentration 10.0 uM
[38] = system: Tyrosine-protein kinase ABL1 (Homo sapiens), P00519 [F317I]; conditions: Compound concentration 1000.0 nM
[39] = biological target: Cyclin-G-associated kinase (Homo sapiens) (UniProt O14976); conditions: Compound concentration 1000.0 nM
[40] = biological target: Hormonally up-regulated neu tumor-associated kinase (Homo sapiens) (UniProt P57058); conditions: Compound concentration 1000.0 nM
[41] = system: Epidermal growth factor receptor (Homo sapiens), P00533 [G719C]; conditions: Compound concentration 1000.0 nM
[42] = biological target: MAP/microtubule affinity-regulating kinase 4 (Homo sapiens) (UniProt Q96L34); conditions: Compound concentration 1000.0 nM
[43] = system: Receptor-type tyrosine-protein kinase FLT3 (Homo sapiens), P36888 [K663Q]; conditions: Compound concentration 1000.0 nM
[44] = biological target: Ribosomal protein S6 kinase alpha-5 (Homo sapiens) (UniProt O75582); conditions: Compound concentration 1000.0 nM

Chain of Alpha-2B adrenergic receptor (Homo sapiens) (P18089 whole entry): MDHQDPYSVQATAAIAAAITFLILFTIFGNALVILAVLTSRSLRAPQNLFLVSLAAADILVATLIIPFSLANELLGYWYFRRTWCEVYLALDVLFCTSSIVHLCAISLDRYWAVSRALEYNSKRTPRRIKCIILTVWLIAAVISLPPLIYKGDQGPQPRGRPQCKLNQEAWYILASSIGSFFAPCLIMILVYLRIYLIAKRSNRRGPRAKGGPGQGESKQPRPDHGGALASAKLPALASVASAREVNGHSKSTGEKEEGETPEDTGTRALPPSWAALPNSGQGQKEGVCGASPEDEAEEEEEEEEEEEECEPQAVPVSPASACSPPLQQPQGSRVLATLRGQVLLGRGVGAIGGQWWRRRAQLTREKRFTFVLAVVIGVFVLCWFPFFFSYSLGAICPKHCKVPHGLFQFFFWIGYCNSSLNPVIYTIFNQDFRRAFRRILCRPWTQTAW
Chain of Vascular endothelial growth factor receptor 1 (Homo sapiens) (P17948 whole entry): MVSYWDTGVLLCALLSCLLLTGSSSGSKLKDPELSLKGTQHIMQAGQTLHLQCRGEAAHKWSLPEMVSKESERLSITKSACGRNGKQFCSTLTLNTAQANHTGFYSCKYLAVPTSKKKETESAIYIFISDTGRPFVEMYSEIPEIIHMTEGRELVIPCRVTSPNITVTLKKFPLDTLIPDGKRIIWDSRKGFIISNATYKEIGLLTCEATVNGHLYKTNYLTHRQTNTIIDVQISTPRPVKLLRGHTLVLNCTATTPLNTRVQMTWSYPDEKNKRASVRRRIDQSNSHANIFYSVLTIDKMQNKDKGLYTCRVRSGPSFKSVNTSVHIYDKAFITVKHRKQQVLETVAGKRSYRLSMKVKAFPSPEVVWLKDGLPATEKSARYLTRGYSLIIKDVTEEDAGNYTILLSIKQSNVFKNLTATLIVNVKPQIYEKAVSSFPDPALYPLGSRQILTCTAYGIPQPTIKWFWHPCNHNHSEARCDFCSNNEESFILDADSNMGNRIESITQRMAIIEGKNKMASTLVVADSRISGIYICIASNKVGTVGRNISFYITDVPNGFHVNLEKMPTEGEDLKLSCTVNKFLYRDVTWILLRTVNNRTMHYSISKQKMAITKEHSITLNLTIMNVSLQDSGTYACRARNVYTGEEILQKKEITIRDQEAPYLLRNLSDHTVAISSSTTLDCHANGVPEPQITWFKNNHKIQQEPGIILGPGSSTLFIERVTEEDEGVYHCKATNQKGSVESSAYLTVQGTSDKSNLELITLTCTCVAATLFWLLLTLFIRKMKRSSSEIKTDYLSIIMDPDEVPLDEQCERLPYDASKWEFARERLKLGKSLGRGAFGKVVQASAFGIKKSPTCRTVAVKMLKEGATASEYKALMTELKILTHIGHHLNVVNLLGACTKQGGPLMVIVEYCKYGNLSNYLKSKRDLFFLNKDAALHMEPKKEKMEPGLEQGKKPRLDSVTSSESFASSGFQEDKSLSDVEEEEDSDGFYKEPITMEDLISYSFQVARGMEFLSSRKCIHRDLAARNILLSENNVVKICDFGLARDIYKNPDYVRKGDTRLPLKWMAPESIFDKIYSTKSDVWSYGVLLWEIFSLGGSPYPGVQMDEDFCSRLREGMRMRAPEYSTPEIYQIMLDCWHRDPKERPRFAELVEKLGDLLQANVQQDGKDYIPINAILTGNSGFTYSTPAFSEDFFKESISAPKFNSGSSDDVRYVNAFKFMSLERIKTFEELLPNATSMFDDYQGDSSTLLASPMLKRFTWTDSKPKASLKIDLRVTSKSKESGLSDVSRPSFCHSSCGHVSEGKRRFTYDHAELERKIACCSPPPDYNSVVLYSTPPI
Chain of Serine/threonine-protein kinase D2 (Homo sapiens) (Q9BZL6 whole entry, canonical isoform): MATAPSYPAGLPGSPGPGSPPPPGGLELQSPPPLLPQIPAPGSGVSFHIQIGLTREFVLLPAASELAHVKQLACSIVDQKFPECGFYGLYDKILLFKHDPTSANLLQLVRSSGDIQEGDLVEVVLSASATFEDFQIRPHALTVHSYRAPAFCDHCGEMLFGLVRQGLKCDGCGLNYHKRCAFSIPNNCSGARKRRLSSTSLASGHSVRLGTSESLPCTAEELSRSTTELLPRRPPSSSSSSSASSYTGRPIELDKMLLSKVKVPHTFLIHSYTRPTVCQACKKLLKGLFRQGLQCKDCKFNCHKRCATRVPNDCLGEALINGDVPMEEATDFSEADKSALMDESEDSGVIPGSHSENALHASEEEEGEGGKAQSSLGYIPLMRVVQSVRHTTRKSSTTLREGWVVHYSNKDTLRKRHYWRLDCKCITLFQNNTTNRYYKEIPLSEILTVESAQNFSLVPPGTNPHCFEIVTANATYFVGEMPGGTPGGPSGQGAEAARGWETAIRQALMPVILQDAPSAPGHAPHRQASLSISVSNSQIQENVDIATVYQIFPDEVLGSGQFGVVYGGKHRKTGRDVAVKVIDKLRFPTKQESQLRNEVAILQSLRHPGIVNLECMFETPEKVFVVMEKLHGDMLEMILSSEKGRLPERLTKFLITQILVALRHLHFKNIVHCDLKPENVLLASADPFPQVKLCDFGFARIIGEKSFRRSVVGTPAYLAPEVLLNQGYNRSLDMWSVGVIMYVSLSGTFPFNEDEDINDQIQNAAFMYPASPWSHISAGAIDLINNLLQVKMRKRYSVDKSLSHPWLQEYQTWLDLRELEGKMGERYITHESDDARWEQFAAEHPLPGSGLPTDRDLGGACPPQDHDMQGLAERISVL
Chain of Casein kinase I isoform epsilon (Homo sapiens) (P49674 whole entry, looked up, canonical isoform): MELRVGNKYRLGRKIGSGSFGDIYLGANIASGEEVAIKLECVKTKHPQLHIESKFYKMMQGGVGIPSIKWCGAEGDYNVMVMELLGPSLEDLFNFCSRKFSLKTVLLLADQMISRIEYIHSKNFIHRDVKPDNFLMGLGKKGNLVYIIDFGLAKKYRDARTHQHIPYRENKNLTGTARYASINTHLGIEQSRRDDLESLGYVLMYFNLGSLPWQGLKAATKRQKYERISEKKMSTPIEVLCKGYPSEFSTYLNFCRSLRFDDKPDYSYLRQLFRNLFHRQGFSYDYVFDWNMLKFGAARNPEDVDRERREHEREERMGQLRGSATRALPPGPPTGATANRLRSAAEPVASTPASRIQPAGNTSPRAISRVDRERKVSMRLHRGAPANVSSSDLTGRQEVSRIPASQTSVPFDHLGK
Chain of Hormonally up-regulated neu tumor-associated kinase (Homo sapiens) (P57058 whole entry): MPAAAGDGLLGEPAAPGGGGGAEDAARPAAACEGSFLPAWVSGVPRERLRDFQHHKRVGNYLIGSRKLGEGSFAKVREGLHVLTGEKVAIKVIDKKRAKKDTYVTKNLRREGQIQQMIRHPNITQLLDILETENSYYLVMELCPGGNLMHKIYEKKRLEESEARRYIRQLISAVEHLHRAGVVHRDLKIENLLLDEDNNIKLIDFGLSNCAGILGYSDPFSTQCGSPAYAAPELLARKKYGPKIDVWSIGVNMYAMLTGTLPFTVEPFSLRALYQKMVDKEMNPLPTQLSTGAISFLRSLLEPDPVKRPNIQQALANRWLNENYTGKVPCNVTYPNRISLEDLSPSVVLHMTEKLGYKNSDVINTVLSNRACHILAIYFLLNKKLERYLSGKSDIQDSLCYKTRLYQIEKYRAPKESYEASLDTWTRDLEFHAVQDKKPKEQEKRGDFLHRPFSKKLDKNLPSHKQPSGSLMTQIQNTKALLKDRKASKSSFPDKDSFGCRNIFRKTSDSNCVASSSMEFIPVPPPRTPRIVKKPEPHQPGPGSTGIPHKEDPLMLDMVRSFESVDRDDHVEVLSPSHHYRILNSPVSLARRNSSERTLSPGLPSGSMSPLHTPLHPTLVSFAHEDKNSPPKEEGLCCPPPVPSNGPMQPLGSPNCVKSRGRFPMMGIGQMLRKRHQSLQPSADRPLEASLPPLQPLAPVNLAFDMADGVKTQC
Chain of Serine/threonine-protein kinase 26 (Homo sapiens) (Q9P289 2-416 limits assumed): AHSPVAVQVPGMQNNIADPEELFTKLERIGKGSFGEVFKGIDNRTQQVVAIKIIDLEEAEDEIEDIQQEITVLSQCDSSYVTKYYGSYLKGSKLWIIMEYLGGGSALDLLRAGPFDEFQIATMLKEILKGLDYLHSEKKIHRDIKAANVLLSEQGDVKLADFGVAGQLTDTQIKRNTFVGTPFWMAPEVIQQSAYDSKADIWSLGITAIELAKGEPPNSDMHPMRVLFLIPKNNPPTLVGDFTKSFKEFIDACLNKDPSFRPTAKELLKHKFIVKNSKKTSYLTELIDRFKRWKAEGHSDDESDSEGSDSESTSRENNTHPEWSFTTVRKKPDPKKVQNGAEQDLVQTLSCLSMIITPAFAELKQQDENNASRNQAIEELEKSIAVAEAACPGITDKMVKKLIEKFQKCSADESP
Chain of Dual specificity protein kinase CLK2 (Homo sapiens) (P49760 whole entry, looked up, canonical isoform): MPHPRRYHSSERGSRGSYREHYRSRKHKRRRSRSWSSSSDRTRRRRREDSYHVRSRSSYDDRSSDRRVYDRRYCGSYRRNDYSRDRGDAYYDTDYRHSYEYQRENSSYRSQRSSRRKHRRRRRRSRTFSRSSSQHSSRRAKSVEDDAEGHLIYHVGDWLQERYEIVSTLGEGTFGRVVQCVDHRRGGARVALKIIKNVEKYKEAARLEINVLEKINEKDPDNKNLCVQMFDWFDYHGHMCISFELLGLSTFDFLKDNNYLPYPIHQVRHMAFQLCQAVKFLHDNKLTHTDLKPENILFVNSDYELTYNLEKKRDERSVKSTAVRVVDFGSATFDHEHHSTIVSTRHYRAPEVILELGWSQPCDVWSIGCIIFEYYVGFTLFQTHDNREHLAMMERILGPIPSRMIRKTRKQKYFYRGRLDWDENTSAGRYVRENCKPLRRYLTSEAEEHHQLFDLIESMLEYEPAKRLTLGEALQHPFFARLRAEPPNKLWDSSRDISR
Chain of Serine/threonine-protein kinase 16 (Homo sapiens) (O75716 whole entry): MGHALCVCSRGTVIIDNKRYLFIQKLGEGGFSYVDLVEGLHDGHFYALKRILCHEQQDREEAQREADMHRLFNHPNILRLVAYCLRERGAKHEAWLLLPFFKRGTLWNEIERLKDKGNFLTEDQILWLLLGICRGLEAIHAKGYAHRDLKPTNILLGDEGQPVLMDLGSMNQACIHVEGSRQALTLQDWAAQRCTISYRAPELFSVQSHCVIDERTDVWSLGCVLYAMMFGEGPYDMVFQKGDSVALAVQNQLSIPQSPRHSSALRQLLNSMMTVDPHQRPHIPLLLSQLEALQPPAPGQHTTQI

Work on `Cc1cc(-n2nc(Cc3cc(F)cc(C(F)(F)F)c3)nc2C)ccc1C(N)=O` [TP-024] yielded an inhibition [1] of 6.84%, a residual activity [2] of 91% and a residual activity [3] of 100%. It also gave an inhibition [4] of 12.8%, a residual activity [5] of 94% and a residual activity [6] of 100%. For the same compound, the residual activity [7] was 100%, the residual activity [8] was 100% and the residual activity [9] was 97%. It also gave a residual activity [10] of 100%, a residual activity [11] of 100% and a residual activity [12] of 100%. The residual activity [13] was 100%, the residual activity [14] was 99% and the residual activity [15] was 100%. It also gave a residual activity [16] of 100%, a residual activity [17] of 100% and a residual activity [18] of 100%. The inhibition [19] was -1.45%, the residual activity [20] was 100% and the residual activity [21] was 100%. The residual activity [22] was 77%, the inhibition [23] was 10.1% and the residual activity [24] was 94%. For the same compound, the residual activity [25] was 100%, the residual activity [26] was 100% and the residual activity [27] was 100%. The residual activity [28] was 100%, the residual activity [29] was 100% and the inhibition [30] was 0.37%. It also gave a residual activity [31] of 94%, a residual activity [32] of 93% and an inhibition [33] of 16%. For the same compound, the residual activity [34] was 78%, the residual activity [35] was 100% and the residual activity [36] was 82%. The inhibition [37] was -2.51%, the residual activity [38] was 85% and the residual activity [39] was 100%. The residual activity [40] was 89%, the residual activity [41] was 100% and the residual activity [42] was 77%. It also gave a residual activity [43] of 100% and a residual activity [44] of 88%.
Compound `Cc1nc(Cc2cccc(C(F)(F)F)c2)sc1-c1ccc(C(N)=O)nc1` [TP-024n] has an inhibition [1] of 24.6%, a residual activity [2] of 100% and a residual activity [3] of 83%. For the same compound, the inhibition [4] was 14.8%, the residual activity [5] was 90% and the residual activity [6] was 100%. The residual activity [7] was 100%, the residual activity [8] was 0.3% and the residual activity [9] was 87%. For the same compound, the residual activity [10] was 100%, the residual activity [11] was 100% and the residual activity [12] was 82%. For the same compound, the residual activity [13] was 99%, the residual activity [14] was 91% and the residual activity [15] was 91%. The residual activity [16] was 100%, the residual activity [17] was 96% and the residual activity [18] was 100%. For the same compound, the inhibition [19] was 4.01%, the residual activity [20] was 95% and the residual activity [21] was 100%. It also gave a residual activity [22] of 35%, an inhibition [23] of 5.89% and a residual activity [24] of 100%. For the same compound, the residual activity [25] was 100%, the residual activity [26] was 97% and the residual activity [27] was 90%. For the same compound, the residual activity [28] was 92%, the residual activity [29] was 98% and the inhibition [30] was 5.75%. The residual activity [31] was 76%, the residual activity [32] was 89% and the inhibition [33] was 3.47%. The residual activity [34] was 100%, the residual activity [35] was 100% and the residual activity [36] was 93%. For the same compound, the inhibition [37] was 33.7%, the residual activity [38] was 83% and the residual activity [39] was 91%. It also gave a residual activity [40] of 90%, a residual activity [41] of 94% and a residual activity [42] of 83%. It also gave a residual activity [43] of 88% and a residual activity [44] of 83%.
